The record followed here is patent US9765092B2, “Tricyclic piperidine compounds” (ACTELION PHARMACEUTICALS LTD, priority 2013, dated 2017).

In the first test the target is human TPH1 (Homo sapiens (Human), UniProt P17752). As to the kind of experiment: Biochemical in vitro assay using fluorescence readout (TPH1 inhibition). Conditions: full length human TPH1, 40 μM L-tryptophan, 15° C., 60 minutes, fluorescence at 540 nm; mean if determined several times.
Chain of human TPH1 (P17752 whole entry): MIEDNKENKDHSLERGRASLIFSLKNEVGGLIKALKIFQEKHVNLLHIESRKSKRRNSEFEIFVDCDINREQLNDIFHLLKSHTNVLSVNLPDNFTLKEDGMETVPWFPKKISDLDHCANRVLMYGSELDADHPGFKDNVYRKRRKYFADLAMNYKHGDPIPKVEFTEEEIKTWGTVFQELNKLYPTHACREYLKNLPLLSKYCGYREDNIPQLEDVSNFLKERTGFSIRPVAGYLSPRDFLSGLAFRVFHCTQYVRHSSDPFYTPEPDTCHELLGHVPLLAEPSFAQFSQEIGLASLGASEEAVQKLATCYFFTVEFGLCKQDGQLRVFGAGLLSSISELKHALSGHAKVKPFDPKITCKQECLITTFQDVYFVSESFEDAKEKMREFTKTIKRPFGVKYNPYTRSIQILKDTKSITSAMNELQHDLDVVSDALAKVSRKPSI
Take `Cc1nn2c3c(nc2s1)CCN(C(=O)COc1ccc(N2CC(F)(F)C2)nc1Cl)C3c1ncc(C(=O)N(C)C)s1` (stereo not shown) [Example 1.37.2, 2-(6-(2-((2-Chloro-6-(3,3-difluoroazetidin-1-yl)pyridin-3-yl)oxy)acetyl)-2-methyl-5,6,7,8-tetrahydro-[1,3,4]thiadiazolo[2′,3′:2,3]imidazo[4,5-c]pyridin-5-yl)-N,N-dimethylthiazole-5-carboxamide]: the IC50 (commonly the concentration at which inhibition is half-maximal) is 51 nM. Compound `Cc1nn2c3c(nc2s1)CCN(C(=O)COc1ccc(N2CCOCC2)nc1Cl)C3c1csc(CN(C)C)c1` (stereo not shown) [Example 1.69.1, 2-((2-Chloro-6-morpholinopyridin-3-yl)oxy)-1-(5-(5-((dimethylamino)-methyl)thiophen-3-yl)-2-methyl-7,8-dihydro-[1,3,4]thiadiazolo[2′,3′:2,3]imidazo[4,5-c]pyridin-6(5H)-yl)ethanone] gave an IC50 of 51 nM. Same read-out and setting: next, `Cc1nn2c3c(nc2s1)CCN(C(=O)COc1ccc(NS(C)(=O)=O)nc1Cl)C3c1cnc(N(C)C)s1` (stereo not shown) [Example 1.22.6, N-(6-Chloro-5-(2-(5-(2-(dimethylamino)thiazol-5-yl)-2-methyl-7,8-dihydro-[1,3,4]thia-diazolo[2′,3′:2,3]imidazo[4,5-c]pyridin-6(5H)-yl)-2-oxoethoxy)pyridin-2-yl)methane-sulfonamide]: 39 nM.

Still in this test, the particulars now being: human TPH1, fluorescence readout.
`Cc1nn2c3c(nc2s1)CCN(C(=O)COc1ccc(S(N)(=O)=O)cc1C)C3c1ccc(Cl)nc1F` (stereo not shown) [Example 1.16.2, 4-(2-(5-(6-chloro-2-fluoropyridin-3-yl)-2-methyl-7,8-dihydro-[1,3,4]thiadiazolo[2′,3′:2,3]imidazo[4,5-c]pyridin-6(5H)-yl)-2-oxoethoxy)-3-methylbenzenesulfonamide] registered an IC50 of 74 nM. Same read-out and setting: the result for `Cc1nn2c3c(nc2s1)CCN(C(=O)COc1ccc(C#N)nc1Cl)C3c1ncc(C2CC2)cc1F` (stereo not shown) [Example 1.14.4, 6-chloro-5-(2-(5-(5-cyclopropyl-3-fluoropyridin-2-yl)-2-methyl-7,8-dihydro-[1,3,4]thiadiazolo[2′,3′:2,3]imidazo[4,5-c]pyridin-6(5H)-yl)-2-oxoethoxy)picolinonitrile] reads 17 nM; that for “N-(5-(2-(5-(4-(aminomethyl)-2-fluorophenyl)-2-methyl-7,8-dihydro-[1,3,4]thiadiazolo[2′,3′:2,3]imidazo[4,5-c]pyridin-6(5H)-yl)-2-oxoethoxy)-6-chloropyridin-2-yl)methanesulfonamide [Example 1.78.1]”, 10 nM. The compound `Cc1nn2c3c(nc2s1)CCN(C(=O)COc1ccc(NS(C)(=O)=O)nc1Cl)C3c1ccc(C2CC2)cc1F` (stereo not shown) [Example 1.6.26, N-(6-chloro-5-(2-(5-(4-cyclopropyl-2-fluorophenyl)-2-methyl-7,8-dihydro-[1,3,4]thiadiazolo[2′,3′:2,3]imidazo[4,5-c]pyridin-6(5H)-yl)-2-oxoethoxy)pyridin-2-yl)methanesulfonamide] had a half-maximal inhibitory concentration (IC50) of 12 nM. Same read-out and setting: next, `CNC(=O)c1cc(F)c(C2c3c(nc4sc(C)nn34)CCN2C(=O)COc2ccc(C#N)cc2Cl)s1` (stereo not shown) [Example 1.25.8, 5-(6-(2-(2-chloro-4-cyanophenoxy)acetyl)-2-methyl-5,6,7,8-tetrahydro-[1,3,4]thiadiazolo[2′,3′:2,3]imidazo[4,5-c]pyridin-5-yl)-4-fluoro-N-methylthiophene-2-carboxamide]: 43 nM. With `CCc1cc(Cl)ccc1OCC(=O)N1CCc2nc3sccn3c2C1c1c(C)noc1C` (stereo not shown) [Example 6.5.5, 2-(4-chloro-2-ethylphenoxy)-1-(5-(3,5-dimethylisoxazol-4-yl)-7,8-dihydrothiazolo[2′,3′:2,3]imidazo[4,5-c]pyridin-6(5H)-yl)ethanone], half-maximal inhibition (IC50) was put at 135 nM. Same read-out and setting: next, `Cc1nn2c3c(nc2s1)CCN(C(=O)COc1ccc(N2CCOCC2)cc1Cl)C3c1cnc(C2CC2)nc1C` (stereo not shown) [Example 1.10.4, 2-(2-chloro-4-morpholinophenoxy)-1-(5-(2-cyclopropyl-4-methylpyrimidin-5-yl)-2-methyl-7,8-dihydro-[1,3,4]thiadiazolo [2′,3′:2,3]imidazo[4,5-c]pyridin-6(5H)-yl)ethanone]: 18 nM; `Cc1nc(C)c(C2c3c(nc4sc(C)nn34)CCN2C(=O)COc2ccc(N3CCCS3(=O)=O)nc2Cl)s1` (stereo not shown) [Example 1.68.5, 2-((2-chloro-6-(1,1-dioxidoisothiazolidin-2-yl)pyridin-3-yl)oxy)-1-(5-(2,4-dimethylthiazol-5-yl)-2-methyl-7,8-dihydro-[1,3,4]thiadiazolo[2′,3′:2,3]imidazo[4,5-c]pyridin-6(5H)-yl)ethanone]: 5 nM; `CNC(=O)c1ccc(OCC(=O)N2CCc3nc4sc(C)nn4c3C2c2ncc(Cl)cc2F)c(Cl)n1` (stereo not shown) [Example 1.33.5, 6-chloro-5-(2-(5-(5-chloro-3-fluoropyridin-2-yl)-2-methyl-7,8-dihydro-[1,3,4]thiadiazolo[2′,3′:2,3]imidazo[4,5-c]pyridin-6(5H)-yl)-2-oxoethoxy)-N-methylpicolinamide]: 6 nM. On the same count and under the same terms, next, `COC(=O)c1ccc(OCC(=O)N2CCc3nc4sc(C)nn4c3C2c2ccc(C3CC3)cc2F)c(Cl)n1` (stereo not shown) [Example 1.6.21, Methyl 6-chloro-5-(2-(5-(4-cyclopropyl-2-fluorophenyl)-2-methyl-7,8-dihydro-[1,3,4]thiadiazolo[2′,3′:2,3]imidazo[4,5-c]pyridin-6(5H)-yl)-2-oxoethoxy)picolinate]: 8 nM; `CCc1cc(Cl)ccc1OCC(=O)N1CCc2nc3sc(C)nn3c2C1c1ccc(C2CC2)cc1F` (stereo not shown) [Example 1.6.7, 2-(4-chloro-2-ethylphenoxy)-1-(5-(4-cyclopropyl-2-fluorophenyl)-2-methyl-7,8-dihydro-[1,3,4]thiadiazolo[2′,3′:2,3]imidazo[4,5-c]pyridin-6(5H)-yl)ethanone]: 7 nM; `Cc1ccc(Cl)c(OCC(=O)N2CCc3nc4sccn4c3C2c2cc3cccnc3s2)c1` (stereo not shown) [Example 6.14.5, 2-(2-chloro-5-methylphenoxy)-1-(5-(thieno[2,3-b]-pyridin-2-yl)-7,8-dihydrothiazolo[2′,3′:2,3]imidazo[4,5-c]pyridin-6(5H)-yl)ethanone]: 43 nM. Same read-out and setting: the result for `Cc1nn(C)c(C)c1C1c2c(nc3sccn23)CCN1C(=O)COc1ccc(C(F)(F)F)cc1Cl` (stereo not shown) [Example 6.15.2, 2-(2-chloro-4-(trifluoromethyl)phenoxy)-1-(5-(1,3,5-trimethyl-1H-pyrazol-4-yl)-7,8-dihydrothiazolo-[2′,3′:2,3]imidazo[4,5-c]pyridin-6(5H)-yl)ethanone] reads 48 nM.

Consider `Cc1nn2c3c(nc2s1)CCN(C(=O)COc1ccc(C(=O)NC2CC2)nc1C1CC1)C3c1ccc(Cl)cc1F` (stereo not shown) [Example 1.4.55, 5-(2-(5-(4-chloro-2-fluorophenyl)-2-methyl-7,8-dihydro-[1,3,4]thiadiazolo[2′,3′:2,3]imidazo[4,5-c]pyridin-6(5H)-yl)-2-oxoethoxy)-N,6-dicyclopropylpicolinamide], for which 9 nM corresponded to half-maximal inhibition (IC50). Same read-out and setting: the result for `Cn1nc(OCC(=O)N2CCc3nc4sccn4c3C2c2cccnc2F)c(C(F)(F)F)c1Cl` (stereo not shown) [Example 6.2.6, 2-((5-chloro-1-methyl-4-(trifluoromethyl)-1H-pyrazol-3-yl)oxy)-1-(5-(2-fluoropyridin-3-yl)-7,8-dihydrothiazolo[2′,3′:2,3]imidazo[4,5-c]pyridin-6(5H)-yl)ethanone] reads 419 nM; that for `CCOC(=O)c1ncc(C2c3c(nc4sc(C)nn34)CCN2C(=O)COc2ccc(N3CCOCC3)nc2Cl)s1` (stereo not shown) [Example 1.30.1, Ethyl 5-(6-(2-((2-chloro-6-morpholinopyridin-3-yl)oxy)acetyl)-2-methyl-5,6,7,8-tetrahydro-[1,3,4]thiadiazolo [2′,3′:2,3]imidazo[4,5-c]pyridin-5-yl)thiazole-2-carboxylate], 9 nM; that for `CCc1nc(C)ccc1OCC(=O)N1CCc2nc3sccn3c2C1c1ccc(C(F)F)cc1F` (stereo not shown) [Example 6.16.2, 1-(5-(4-(difluoromethyl)-2-fluorophenyl)-7,8-dihydro-thiazolo[2′,3′:2,3]imidazo[4,5-c]pyridin-6(5H)-yl)-2-((2-ethyl-6-methylpyridin-3-yl)oxy)ethanone], 8 nM.

The compound `Cc1nn2c3c(nc2s1)CCN(C(=O)C(C)(C)Oc1ccc(NS(C)(=O)=O)nc1Cl)C3c1ccc(Cl)cc1F` (stereo not shown) [Example 1.4.56, N-(6-chloro-5-((1-(5-(4-chloro-2-fluorophenyl)-2-methyl-7,8-dihydro-[1,3,4]thiadiazolo[2′,3′:2,3]imidazo[4,5-c]pyridin-6(5H)-yl)-2-methyl-1-oxopropan-2-yl)oxy)pyridin-2-yl)methanesulfonamide] showed an IC50 of 567 nM. As for `CCc1nn2c3c(nc2s1)CCN(C(=O)COc1ccc(C#N)cc1Cl)C3c1ccc(Cl)cc1F` (stereo not shown) [Example 3.1.2, 3-chloro-4-(2-(5-(4-chloro-2-fluorophenyl)-2-ethyl-7,8-dihydro-[1,3,4]thiadiazolo[2′,3′:2,3]imidazo[4,5-c]pyridin-6(5H)-yl)-2-oxoethoxy)benzonitrile], the IC50 was 15 nM. Still for that read-out and setting: next, `Cc1nn2c3c(nc2s1)CCN(C(=O)COc1ccc(-c2ncco2)nc1Cl)[C@H]3c1sccc1F` [Example 1.23.15, (R)-2-((2-chloro-6-(oxazol-2-yl)pyridin-3-yl)oxy)-1-(5-(3-fluorothiophen-2-yl)-2-methyl-7,8-dihydro-[1,3,4]thiadiazolo[2′,3′:2,3]imidazo[4,5-c]pyridin-6(5H)-yl)ethanone]: 20 nM. Same read-out and setting: the result for `Cc1nc(C)c(C2c3c(nc4sc(C)nn34)CCN2C(=O)COc2ccc(NS(C)(=O)=O)nc2Cl)s1` (stereo not shown) [Example 1.68.2, N-(6-chloro-5-(2-(5-(2,4-dimethylthiazol-5-yl)-2-methyl-7,8-dihydro-[1,3,4]thiadiazolo[2′,3′:2,3]imidazo[4,5-c]pyridin-6(5H)-yl)-2-oxoethoxy)pyridin-2-yl)methanesulfonamide] reads 9 nM. With `N#Cc1ccc(OCC(=O)N2CCc3nc4sccn4c3C2c2ncc(C3CC3)cc2F)c(Cl)n1` (stereo not shown) [Example 6.7.2, 6-chloro-5-(2-(5-(5-cyclopropyl-3-fluoropyridin-2-yl)-7,8-dihydrothiazolo[2′,3′:2,3]imidazo[4,5-c]pyridin-6(5H)-yl)-2-oxoethoxy)picolinonitrile], half-maximal inhibition (IC50) required 17 nM.
